Here are results for 21 molecules from US9580430B2, “9H-pyrimido[4,5-B]indoles and related analogs as BET bromodomain inhibitors” (THE REGENTS OF THE UNIVERSITY OF MICHIGAN, priority 2014, dated 2017).

One assay deals with T1, recombinant BRD4 BD2 (Homo sapiens, UniProt O60885).
T1 construct: for recombinant BRD4 BD1 and BRD4 BD2 proteins
Description: Competitive fluorescence-polarization (FP) binding assay, BRD4 BD2. Note: probe 1.5 nM. To be noted: competitive FP assay; protein 6 nM, probe […]; read-out: IC50 (nM) BRD4 BD2. The method, boiled down:
(§1)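 Buffer: 100 mM potassium phosphate, pH 6.5, 0.01% Triton X-100; compounds added in buffer with 40% ethylene glycol to preformed complex of fluorescent probe with BRD4 BD1 (10 nM final) or BD2 (6 nM final). After 30 min at room temperature, polarization read. IC50 from nonlinear fits of competition curves, with Ki.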

The next assay concerns the target T2, recombinant BRD4 BD1 (Homo sapiens, UniProt O60885).
T2 construct: for recombinant BRD4 BD1 and BRD4 BD2 proteins
As to the kind of experiment: Competitive fluorescence-polarization (FP) binding assay, BRD4 BD1. Note: probe 1.5 nM. To be noted: competitive FP assay; protein 10 nM, probe […]; read-out: IC50 (nM) BRD4 BD1. A digest of the protocol: as §1

A further assay has as its system MDA-MB-436. Description: Cell growth inhibition, MDA-MB-436 breast cancer cells (WST-8). To be noted: Homo sapiens, MDA-MB-436, 96 h; 4 days; read-out: IC50 (nM) MDA-MB-436 Cell Line (WST assay). Type of assay: cell-based. A digest of the protocol: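 IC50 was computed from WST-8-based cell counting in MDA-MB-436 cells, with absorbance read at 450 nm.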
Another assay relates to MOLM-13. Description: Cell growth inhibition, MOLM-13 leukemia cells (CellTiter-Glo). Type of assay: cell-based. To be noted: Homo sapiens, MOLM-13, 96 h; 4 days; read-out: IC50 (nM) MOLM-13 Cell Line (CellTiter-Glo assay). A digest of the protocol:
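Luminescent ATP-based viability (CellTiter-Glo, 10-20 min at room temperature) in compound-treated MOLM-13 cells; the half-maximal inhibitory concentration was calculated from the readout.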

One may read the IC50 as the point on the concentration scale where inhibition reaches its midpoint.

SMILES strings stand for the structures.

For `COc1cc2c(cc1-c1c(C)noc1C)[nH]c1nc(C)nc(Nc3cc(C4CC4)nn3C3CC3)c12` [Cpd. No. 152, N-(1,3-Dicyclopropyl-1H-pyrazol-5-yl)-7-(3,5-dimethylisoxazol-4-yl)-6-methoxy-2-methyl-9H-pyrimido[4,5-b]indol-4-amine], the IC50 at recombinant BRD4 BD2 worked out at 5.6 nM; at recombinant BRD4 BD1 it was 10.6 nM; in the assay with MDA-MB-436, 34 nM; with MOLM-13, 19 nM.

On to `COc1cc2c(cc1-c1c(C)noc1C)[nH]c1nc(C)nc(Nc3cn(C)cn3)c12` [Cpd. No. 166, 7-(3,5-dimethylisoxazol-4-yl)-6-methoxy-2-methyl-N-(1-methyl-1H-imidazol-4-yl)-9H-pyrimido[4,5-b]indol-4-amine], for which the IC50 was 161 nM on recombinant BRD4 BD2, 119 nM at recombinant BRD4 BD1, 1420 nM in the assay on MDA-MB-436 and 504 nM in the assay on MOLM-13.

In the case of `CCc1nn(C)c(Nc2nc(C)nc3[nH]c4cc(-c5c(C)noc5C)c(OC)cc4c23)c1C` [Cpd. No. 169, 7-(3,5-dimethylisoxazol-4-yl)-N-(3-ethyl-1,4-dimethyl-1H-pyrazol-5-yl)-6-methoxy-2-methyl-9H-pyrimido[4,5-b]indol-4-amine], the IC50 was determined as 23 nM at recombinant BRD4 BD2, 14.3 nM at recombinant BRD4 BD1, 93.9 nM in the assay with MDA-MB-436 and 63.3 nM in the assay with MOLM-13.

Regarding `COc1cc2c(cc1-c1c(C)noc1C)[nH]c1nc(C)nc(Nc3cnn(C)c3C)c12` [Cpd. No. 170, N-(1,5-dimethyl-1H-pyrazol-4-yl)-7-(3,5-dimethylisoxazol-4-yl)-6-methoxy-2-methyl-9H-pyrimido[4,5-b]indol-4-amine], the IC50 on recombinant BRD4 BD2 was 56.5 nM; at recombinant BRD4 BD1, 44.9 nM; in the assay with MDA-MB-436, 222 nM; with MOLM-13, 131 nM.

Consider `COc1cc2c(cc1-c1c(C)noc1C)[nH]c1nc(C)nc(Nc3cnc(C)n3C)c12` [Cpd. No. 171, N-(1,2-dimethyl-1H-imidazol-5-yl)-7-(3,5-dimethylisoxazol-4-yl)-6-methoxy-2-methyl-9H-pyrimido[4,5-b]indol-4-amine], for which the IC50 at recombinant BRD4 BD2 came out at 79.5 nM; at recombinant BRD4 BD1 it was 153 nM; in the assay on MDA-MB-436, 1530 nM; with MOLM-13 it was 609 nM.

As to `COc1cc2c(cc1-c1c(C)noc1C)[nH]c1nc(C)nc(Nc3ccnn3C)c12` [Cpd. No. 172, 7-(3,5-dimethylisoxazol-4-yl)-6-methoxy-2-methyl-N-(1-methyl-1H-pyrazol-5-yl)-9H-pyrimido[4,5-b]indol-4-amine], the IC50 came to 49.5 nM on recombinant BRD4 BD2, 57.2 nM at recombinant BRD4 BD1, 634 nM with MDA-MB-436 and 453 nM with MOLM-13.

Regarding `CCn1nccc1Nc1nc(C)nc2[nH]c3cc(-c4c(C)noc4C)c(OC)cc3c12` [Cpd. No. 173, 7-(3,5-dimethylisoxazol-4-yl)-N-(1-ethyl-1H-pyrazol-5-yl)-6-methoxy-2-methyl-9H-pyrimido[4,5-b]indol-4-amine], the IC50 on recombinant BRD4 BD2 was 25.1 nM; on recombinant BRD4 BD1, 31.7 nM; in the assay with MDA-MB-436, 198 nM; with MOLM-13 it was 121 nM.

Consider `COc1cc2c(cc1-c1c(C)noc1C)[nH]c1nc(C)nc(Nc3c(C#N)cnn3C)c12` [Cpd. No. 174, 5-((7-(3,5-dimethylisoxazol-4-yl)-6-methoxy-2-methyl-9H-pyrimido[4,5-b]indol-4-yl)amino)-1-methyl-1H-pyrazole-4-carbonitrile], for which the IC50 on recombinant BRD4 BD2 came out at 117 nM; on recombinant BRD4 BD1, 142 nM; in the assay on MDA-MB-436, 118 nM; in the assay with MOLM-13, 108 nM.

With `COc1cc2c(cc1-c1c(C)noc1C)[nH]c1nc(C)nc(Nc3ccnn3C(C)C)c12` [Cpd. No. 175, 7-(3,5-dimethylisoxazol-4-yl)-N-(1-isopropyl-1H-pyrazol-5-yl)-6-methoxy-2-methyl-9H-pyrimido[4,5-b]indol-4-amine], the IC50 was determined as 6.9 nM on recombinant BRD4 BD2, 28.7 nM at recombinant BRD4 BD1, 71 nM with MDA-MB-436 and 40.5 nM in the assay with MOLM-13.

Turning to `CCn1ncc(C)c1Nc1nc(C)nc2[nH]c3cc(-c4c(C)noc4C)c(OC)cc3c12` [Cpd. No. 176, 7-(3,5-dimethylisoxazol-4-yl)-N-(1-ethyl-4-methyl-1H-pyrazol-5-yl)-6-methoxy-2-methyl-9H-pyrimido[4,5-b]indol-4-amine], the IC50 came to 10.3 nM at recombinant BRD4 BD2, 13.7 nM at recombinant BRD4 BD1, 83.3 nM in the assay with MDA-MB-436 and 52.9 nM in the assay with MOLM-13.

For the molecule `COc1cc2c(cc1-c1c(C)noc1C)[nH]c1nc(C)nc(Nc3sc(C)nc3C)c12` [Cpd. No. 177, N-(7-(3,5-dimethylisoxazol-4-yl)-6-methoxy-2-methyl-9H-pyrimido[4,5-b]indol-4-yl)-2,4-dimethylthiazol-5-amine], the IC50 on recombinant BRD4 BD2 was found to be 13.2 nM; on recombinant BRD4 BD1, 7.9 nM; with MDA-MB-436 it was 110 nM; with MOLM-13 it was 78.6 nM.

Turning to `COc1cc2c(cc1-c1c(C)noc1C)[nH]c1nc(C)nc(Nc3ccnn3C3CCCC3)c12` [Cpd. No. 178, N-(1-cyclopentyl-1H-pyrazol-5-yl)-7-(3,5-dimethylisoxazol-4-yl)-6-methoxy-2-methyl-9H-pyrimido[4,5-b]indol-4-amine], the IC50 at recombinant BRD4 BD2 is 0.6 nM; at recombinant BRD4 BD1 it was 9 nM; with MDA-MB-436 it was 52.9 nM; in the assay on MOLM-13, 22.5 nM.

With `COc1cc2c(cc1-c1c(C)noc1C)[nH]c1nc(C)nc(Nc3cn(C)nc3C(F)(F)F)c12` [Cpd. No. 179, 7-(3,5-dimethylisoxazol-4-yl)-6-methoxy-2-methyl-N-(1-methyl-3-(trifluoromethyl)-1H-pyrazol-4-yl)-9H-pyrimido[4,5-b]indol-4-amine], the IC50 at recombinant BRD4 BD2 stood at 116 nM; on recombinant BRD4 BD1, 166 nM; in the assay with MDA-MB-436 it was 330 nM; with MOLM-13 it was 2080 nM.

On to `COc1cc2c(cc1-c1c(C)noc1C)[nH]c1nc(C)nc(Nc3cn(C)nc3C(C)C)c12` [Cpd. No. 181, 7-(3,5-dimethylisoxazol-4-yl)-N-(3-isopropyl-1-methyl-1H-pyrazol-4-yl)-6-methoxy-2-methyl-9H-pyrimido[4,5-b]indol-4-amine], for which the IC50 on recombinant BRD4 BD2 was determined as 10.2 nM; at recombinant BRD4 BD1, 4.4 nM; in the assay with MDA-MB-436 it was 22.9 nM; in the assay with MOLM-13, 22.2 nM.

For the molecule `CCc1nn(C)cc1Nc1nc(C)nc2[nH]c3cc(-c4c(C)noc4C)c(OC)cc3c12` [Cpd. No. 182, 7-(3,5-dimethylisoxazol-4-yl)-N-(3-ethyl-1-methyl-1H-pyrazol-4-yl)-6-methoxy-2-methyl-9H-pyrimido[4,5-b]indol-4-amine], the IC50 is 23.6 nM on recombinant BRD4 BD2, 15.6 nM on recombinant BRD4 BD1, 98 nM with MDA-MB-436 and 34.8 nM in the assay on MOLM-13.

Consider `COc1cc2c(cc1-c1c(C)noc1C)[nH]c1nc(C)nc(Nc3ccnn3C(C)(C)C)c12` [Cpd. No. 183, N-(1-(tert-butyl)-1H-pyrazol-5-yl)-7-(3,5-dimethylisoxazol-4-yl)-6-methoxy-2-methyl-9H-pyrimido[4,5-b]indol-4-amine], for which the IC50 amounted to 6.1 nM on recombinant BRD4 BD2, 9.6 nM at recombinant BRD4 BD1, 83.7 nM in the assay on MDA-MB-436 and 29.7 nM in the assay on MOLM-13.

In the case of `CCn1nc(C)c(C)c1Nc1nc(C)nc2[nH]c3cc(-c4c(C)noc4C)c(OC)cc3c12` [Cpd. No. 186, 7-(3,5-dimethylisoxazol-4-yl)-N-(1-ethyl-3,4-dimethyl-1H-pyrazol-5-yl)-6-methoxy-2-methyl-9H-pyrimido[4,5-b]indol-4-amine], the 50% inhibitory concentration (IC50) is 55.1 nM on recombinant BRD4 BD2, 33.9 nM at recombinant BRD4 BD1, 132 nM with MDA-MB-436 and 27.1 nM in the assay on MOLM-13.

For `COc1cc2c(cc1-c1c(C)noc1C)[nH]c1nc(C)nc(Nc3c(C)c(C)nn3C3CCC3)c12` [Cpd. No. 187, N-(1-cyclobutyl-3,4-dimethyl-1H-pyrazol-5-yl)-7-(3,5-dimethylisoxazol-4-yl)-6-methoxy-2-methyl-9H-pyrimido[4,5-b]indol-4-amine], the IC50 at recombinant BRD4 BD2 stood at 10.9 nM; on recombinant BRD4 BD1, 10.5 nM; in the assay on MDA-MB-436, 121 nM; in the assay on MOLM-13 it was 38.8 nM.

Turning to `COc1cc2c(cc1-c1c(C)noc1C)[nH]c1nc(C)nc(Nc3c(C)c(C)nn3C3CC3)c12` [Cpd. No. 188, N-(1-cyclopropyl-3,4-dimethyl-1H-pyrazol-5-yl)-7-(3,5-dimethylisoxazol-4-yl)-6-methoxy-2-methyl-9H-pyrimido[4,5-b]indol-4-amine], the IC50 at recombinant BRD4 BD2 amounted to 3.7 nM; at recombinant BRD4 BD1, 2.1 nM; in the assay with MDA-MB-436, 12.8 nM; with MOLM-13 it was 3.2 nM.

For the molecule `COc1cc2c(cc1-c1c(C)noc1C)[nH]c1nc(C)nc(Nc3cc(C)nn3C3CC3)c12` [Cpd. No. 192, N-(1-cyclopropyl-3-methyl-1H-pyrazol-5-yl)-7-(3,5-dimethylisoxazol-4-yl)-6-methoxy-2-methyl-9H-pyrimido[4,5-b]indol-4-amine], the IC50 was determined as 114 nM on recombinant BRD4 BD2, 30.1 nM at recombinant BRD4 BD1, 422 nM in the assay with MDA-MB-436 and 114 nM in the assay on MOLM-13.

As for `COc1cc2c(cc1-c1c(C)noc1C)[nH]c1nc(C)nc(Nc3cn(C)nc3C(C)(C)C)c12` [Cpd. No. 193, N-(3-(tert-butyl)-1-methyl-1H-pyrazol-4-yl)-7-(3,5-dimethylisoxazol-4-yl)-6-methoxy-2-methyl-9H-pyrimido[4,5-b]indol-4-amine], the IC50 on recombinant BRD4 BD2 amounted to 2.7 nM; at recombinant BRD4 BD1, 3.6 nM; with MDA-MB-436 it was 47.5 nM; in the assay on MOLM-13, 8.1 nM.
